{
  "source": "patent US11111251B2",
  "about": "“Positive allosteric modulators of the muscarinic acetylcholine receptor M1” (Vanderbilt University, priority 2016, dated 2021)",
  "target": "T1, human mAChR M1 (Homo sapiens, UniProt P11229)",
  "T1 sequence (P11229 1-460)": "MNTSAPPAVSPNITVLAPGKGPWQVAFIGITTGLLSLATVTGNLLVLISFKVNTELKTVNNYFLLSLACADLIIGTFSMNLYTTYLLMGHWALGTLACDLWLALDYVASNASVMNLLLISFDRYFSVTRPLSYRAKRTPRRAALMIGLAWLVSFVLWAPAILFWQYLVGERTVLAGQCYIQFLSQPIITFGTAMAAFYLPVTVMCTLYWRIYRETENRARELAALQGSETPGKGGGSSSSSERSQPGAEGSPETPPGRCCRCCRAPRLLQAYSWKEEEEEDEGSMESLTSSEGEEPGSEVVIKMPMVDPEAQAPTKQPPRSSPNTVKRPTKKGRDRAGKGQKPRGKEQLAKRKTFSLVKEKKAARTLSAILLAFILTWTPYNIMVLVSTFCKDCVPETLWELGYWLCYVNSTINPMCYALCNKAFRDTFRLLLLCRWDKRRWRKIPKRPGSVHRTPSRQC",
  "test": "mAChR M1 cell-based functional assay: calcium mobilization, positive allosteric modulator mode (increase in EC20 acetylcholine response)",
  "details": "Table 2, human M1; for EC50: read-out: Human M1 EC50; for Emax: read-out: Human M1 Emax (%)",
  "method_in_brief": "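Calcium-flux assay in CHO-K1 cells stably expressing human M1, loaded with Fluo-4 AM (50 min, 37 °C) and read at 1 Hz. Compound (11-point, 1:3 series) was added at 4 s, EC20 acetylcholine at 144 s and EC80 at 230 s. PAM activity is the concentration-dependent rise in the EC20 response, fitted with a four-parameter logistic.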",
  "data": [
    {"compound": "O=C(N[C@@H]1CCOC1)c1cc(Cc2ccc(-c3nccs3)cc2)c2sccc2n1", "note": "[Compound 368]", "values": [
      {"measurement": "EC50", "value": 2300, "unit": "nM"},
      {"measurement": "Emax", "value": 65.6, "unit": "%"}
    ]},
    {"compound": "O=C(N[C@H]1CCOC1)c1cc(Cc2ccc(-c3nccs3)cc2)c2sccc2n1", "note": "[Compound 369, N-[(3S)-tetrahydrofuran-3-yl]-7-[(4-thiazol-2-ylphenyl)methyl]thieno[3,2-b]pyridine-5-carboxamide]", "values": [
      {"measurement": "EC50", "value": 2290, "unit": "nM"},
      {"measurement": "Emax", "value": 59.5, "unit": "%"}
    ]},
    {"compound": "CC1COCCC1NC(=O)c1cc(Cc2ccc(-c3nccs3)cc2)c2sccc2n1", "note": "(centres unmarked) [Compound 370, N-(3-methyltetrahydropyran-4-yl)-7-[(4-thiazol-2-ylphenyl)methyl]thieno[3,2-b]pyridine-5-carboxamide]", "values": [
      {"measurement": "EC50", "value": 400, "unit": "nM"},
      {"measurement": "Emax", "value": 77.7, "unit": "%"}
    ]},
    {"compound": "O=C(N[C@H]1COCC[C@@H]1O)c1cc(Cc2ccc(-c3nccs3)cc2)c2sccc2n1", "note": "[Compound 371]", "values": [
      {"measurement": "EC50", "value": 22.1, "unit": "nM"},
      {"measurement": "Emax", "value": 81.5, "unit": "%"}
    ]},
    {"compound": "COCCCNC(=O)c1cc(Cc2ccc(-c3nccs3)cc2)c2sccc2n1", "note": "[Compound 372, N-(3-methoxypropyl)-7-[(4-thiazol-2-ylphenyl)methyl]thieno[3,2-b]pyridine-5-carboxamide]", "values": [
      {"measurement": "EC50", "value": 1880, "unit": "nM"},
      {"measurement": "Emax", "value": 75.3, "unit": "%"}
    ]},
    {"compound": "COCCNC(=O)c1cc(Cc2ccc(-c3nccs3)cc2)c2sccc2n1", "note": "[Compound 373, N-(2-methoxyethyl)-7-[(4-thiazol-2-ylphenyl)methyl]thieno[3,2-b]pyridine-5-carboxamide]", "values": [
      {"measurement": "EC50", "value": 1420, "unit": "nM"},
      {"measurement": "Emax", "value": 79.6, "unit": "%"}
    ]},
    {"compound": "O=C(NCC1CCOC1)c1cc(Cc2ccc(-c3nccs3)cc2)c2sccc2n1", "note": "(centres unmarked) [Compound 374, N-(tetrahydrofuran-3-ylmethyl)-7-[(4-thiazol-2-ylphenyl)methyl]thieno[3,2-b]pyridine-5-carboxamide]", "values": [
      {"measurement": "EC50", "value": 556, "unit": "nM"},
      {"measurement": "Emax", "value": 73.1, "unit": "%"}
    ]},
    {"compound": "O=C(NCC1CCCCO1)c1cc(Cc2ccc(-c3nccs3)cc2)c2sccc2n1", "note": "(centres unmarked) [Compound 375, N-(tetrahydropyran-2-ylmethyl)-7-[(4-thiazol-2-ylphenyl)methyl]thieno[3,2-b]pyridine-5-carboxamide]", "values": [
      {"measurement": "EC50", "value": "> 10000", "unit": "nM"},
      {"measurement": "Emax", "value": 77.4, "unit": "%"}
    ]},
    {"compound": "Cn1ccc(-c2ccc(Cc3cc(C(=O)NC4CCOCC4(C)C)nc4ccsc34)cn2)n1", "note": "(centres unmarked) [Compound 376, N-(3,3-dimethyltetrahydropyran-4-yl)-7-[[6-(1-methylpyrazol-3-yl)-3-pyridyl]methyl]thieno[3,2-b]pyridine-5-carboxamide]", "values": [
      {"measurement": "EC50", "value": 170, "unit": "nM"},
      {"measurement": "Emax", "value": 60.7, "unit": "%"}
    ]},
    {"compound": "CC1CC(NC(=O)c2cc(Cc3ccc(-c4ccn(C)n4)nc3)c3sccc3n2)CC(C)O1", "note": "(centres unmarked) [Compound 377, N-(2,6-dimethyltetrahydropyran-4-yl)-7-[[6-(1-methylpyrazol-3-yl)-3-pyridyl]methyl]thieno[3,2-b]pyridine-5-carboxamide]", "values": [
      {"measurement": "EC50", "value": 412, "unit": "nM"},
      {"measurement": "Emax", "value": 58.7, "unit": "%"}
    ]},
    {"compound": "Cn1ccc(-c2ccc(Cc3cc(C(=O)NC4CCOC(C)(C)C4)nc4ccsc34)cn2)n1", "note": "(centres unmarked) [Compound 378, N-(2,2-dimethyltetrahydropyran-4-yl)-7-[[6-(1-methylpyrazol-3-yl)-3-pyridyl]methyl]thieno[3,2-b]pyridine-5-carboxamide]", "values": [
      {"measurement": "EC50", "value": 167, "unit": "nM"},
      {"measurement": "Emax", "value": 58.9, "unit": "%"}
    ]},
    {"compound": "Cn1cc(-c2ccc(Cc3cc(C(=O)NC4CCOCC4(C)C)nc4ccsc34)cc2)cn1", "note": "(centres unmarked) [Compound 379, N-(3,3-dimethyltetrahydropyran-4-yl)-7-[[4-(1-methylpyrazol-4-yl)phenyl]methyl]thieno[3,2-b]pyridine-5-carboxamide]", "values": [
      {"measurement": "EC50", "value": 150, "unit": "nM"},
      {"measurement": "Emax", "value": 53.9, "unit": "%"}
    ]},
    {"compound": "CC1CC(NC(=O)c2cc(Cc3ccc(-c4cnn(C)c4)cc3)c3sccc3n2)CC(C)O1", "note": "(centres unmarked) [Compound 380, N-(2,6-dimethyltetrahydropyran-4-yl)-7-[[4-(1-methylpyrazol-4-yl)phenyl]methyl]thieno[3,2-b]pyridine-5-carboxamide]", "values": [
      {"measurement": "EC50", "value": 287, "unit": "nM"},
      {"measurement": "Emax", "value": 64.5, "unit": "%"}
    ]},
    {"compound": "Cn1cc(-c2ccc(Cc3cc(C(=O)NC4CCOC(C)(C)C4)nc4ccsc34)cc2)cn1", "note": "(centres unmarked) [Compound 381, N-(2,2-dimethyltetrahydropyran-4-yl)-7-[[4-(1-methylpyrazol-4-yl)phenyl]methyl]thieno[3,2-b]pyridine-5-carboxamide]", "values": [
      {"measurement": "EC50", "value": 98.1, "unit": "nM"},
      {"measurement": "Emax", "value": 60.4, "unit": "%"}
    ]},
    {"compound": "O=C(NCC1CCO1)c1cc(Cc2ccc(-c3nccs3)cc2)c2sccc2n1", "note": "(centres unmarked) [Compound 382, N-(oxetan-2-ylmethyl)-7-[(4-thiazol-2-ylphenyl)methyl]thieno[3,2-b]pyridine-5-carboxamide]", "values": [
      {"measurement": "EC50", "value": 386, "unit": "nM"},
      {"measurement": "Emax", "value": 56.6, "unit": "%"}
    ]},
    {"compound": "O=C(NC1CC(F)(F)C1)c1cc(Cc2ccc(-c3nccs3)cc2)c2sccc2n1", "note": "[Compound 383]", "values": [
      {"measurement": "EC50", "value": "> 10000", "unit": "nM"},
      {"measurement": "Emax", "value": 30.4, "unit": "%"}
    ]},
    {"compound": "O=C(NCC1CCCO1)c1cc(Cc2ccc(-c3nccs3)cc2)c2sccc2n1", "note": "(centres unmarked) [Compound 384, N-(tetrahydrofuran-2-ylmethyl)-7-[(4-thiazol-2-ylphenyl)methyl]thieno[3,2-b]pyridine-5-carboxamide]", "values": [
      {"measurement": "EC50", "value": 1370, "unit": "nM"},
      {"measurement": "Emax", "value": 65.2, "unit": "%"}
    ]},
    {"compound": "O=C(NC1CCC(F)(F)CC1)c1cc(Cc2ccc(-c3nccs3)cc2)c2sccc2n1", "note": "[Compound 385, N-(4,4-difluorocyclohexyl)-7-[(4-thiazol-2-ylphenyl)methyl]thieno[3,2-b]pyridine-5-carboxamide]", "values": [
      {"measurement": "EC50", "value": "> 10000", "unit": "nM"},
      {"measurement": "Emax", "value": 41.1, "unit": "%"}
    ]},
    {"compound": "CC1CC(NC(=O)c2cc(Cc3ccc(-c4nccs4)cc3)c3sccc3n2)CC(C)O1", "note": "(centres unmarked) [Compound 386, N-(2,6-dimethyltetrahydropyran-4-yl)-7-[(4-thiazol-2-ylphenyl)methyl]thieno[3,2-b]pyridine-5-carboxamide]", "values": [
      {"measurement": "EC50", "value": 1910, "unit": "nM"},
      {"measurement": "Emax", "value": 66.1, "unit": "%"}
    ]},
    {"compound": "O=C(NCC1CCOCC1)c1cc(Cc2ccc(-c3cncs3)cc2)c2sccc2n1", "note": "[Compound 387, N-(tetrahydropyran-4-ylmethyl)-7-[(4-thiazol-5-ylphenyl)methyl]thieno[3,2-b]pyridine-5-carboxamide]", "values": [
      {"measurement": "EC50", "value": 583, "unit": "nM"},
      {"measurement": "Emax", "value": 69.5, "unit": "%"}
    ]},
    {"compound": "CC1(C)CC(NC(=O)c2cc(Cc3ccc(-c4cncs4)cc3)c3sccc3n2)CCO1", "note": "(centres unmarked) [Compound 388, N-(2,2-dimethyltetrahydropyran-4-yl)-7-[(4-thiazol-5-ylphenyl)methyl]thieno[3,2-b]pyridine-5-carboxamide]", "values": [
      {"measurement": "EC50", "value": 846, "unit": "nM"},
      {"measurement": "Emax", "value": 67.8, "unit": "%"}
    ]},
    {"compound": "O=C(NC[C@@H]1CCCO1)c1cc(Cc2ccc(-c3nccs3)cc2)c2sccc2n1", "note": "[Compound 389, N-[[(2S)-tetrahydrofuran-2-yl]methyl]-7-[(4-thiazol-2-ylphenyl)methyl]thieno[3,2-b]pyridine-5-carboxamide]", "values": [
      {"measurement": "EC50", "value": 345, "unit": "nM"},
      {"measurement": "Emax", "value": 64.9, "unit": "%"}
    ]},
    {"compound": "CC1(C)COCCC1NC(=O)c1cc(Cc2ccc(-c3cncs3)cc2)c2sccc2n1", "note": "(centres unmarked) [Compound 390, N-(3,3-dimethyltetrahydropyran-4-yl)-7-[(4-thiazol-5-ylphenyl)methyl]thieno[3,2-b]pyridine-5-carboxamide]", "values": [
      {"measurement": "EC50", "value": 926, "unit": "nM"},
      {"measurement": "Emax", "value": 66.3, "unit": "%"}
    ]},
    {"compound": "CC1CC(NC(=O)c2cc(Cc3ccc(-c4cncs4)cc3)c3sccc3n2)CC(C)O1", "note": "(centres unmarked) [Compound 391, N-(2,6-dimethyltetrahydropyran-4-yl)-7-[(4-thiazol-5-ylphenyl)methyl]thieno[3,2-b]pyridine-5-carboxamide]", "values": [
      {"measurement": "EC50", "value": 1800, "unit": "nM"},
      {"measurement": "Emax", "value": 73.4, "unit": "%"}
    ]},
    {"compound": "C[C@@H]1COCC[C@@H]1NC(=O)c1cc(Cc2ccc(-c3cncs3)cc2)c2sccc2n1", "note": "[Compound 392, N-[(3S,4S)-3-methyltetrahydropyran-4-yl]-7-[(4-thiazol-5-ylphenyl)methyl]thieno[3,2-b]pyridine-5-carboxamide]", "values": [
      {"measurement": "EC50", "value": 199, "unit": "nM"},
      {"measurement": "Emax", "value": 65.4, "unit": "%"}
    ]}
  ]
}
